# Where two headings read alike, the source gives them in different places.
# Assays:
# [1] = Evaluation of calcium fluorescent probes: absorption and fluorescence spectra at various free Ca2+ concentrations; assay type: binding; details: for Φfl in 0 μM free [Ca2+] buffer / λabs in 0 μM free [Ca2+] buffer / λfl in 0 μM free [Ca2+] buffer / Φfl in 39 μM free [Ca2+] buffer / λabs in 39 μM free [Ca2+] buffer / λfl in 39 μM free [Ca2+] buffer / Kd: 30 mM MOPS buffer pH 7.2, 100 mM KCl, 10 mM EGTA, 22°C; for Kd: Ca2+; for Change of absorption spectra with Ca2+ ion concentration: free Ca2+ 0 to 39 μM; for Change of absorption spectra with Ca2+ ion concentration / Change of fluorescence intensity with Ca2+ ion concentration: pH 7.2, 22°C; for Change of fluorescence intensity with Ca2+ ion concentration: free Ca2+ 0 to 35/39 μM
# Experimental: Fluorescence of Calcium TokyoMagenta obtained in Example 3 was measured in the presence of calcium ions of various concentrations. Free calcium ions at various concentrations (0, 0.017, 0.038, 0.065, 0.100, 0.150, 0.225, 0.351, 0.602, 1.35, and 35 μM) was added to the solution of Calcium TokyoMagenta (1 μM) dissolved in a 30 mM MOPS buffer (pH 7.2) containing 100 mM potassium chloride and 10 mM EGTA, and the fluorescence spectrum was measured at 22° C. (excitation wavelength: 550 nm).
# The fluorescent probes prepared in Examples 13 and 14 were evaluated. Ca^2+-dependent changes of absorption spectra and fluorescence spectra of CaTM-1 (a) and CaTM-2 (b) were measured in a 30 mM 3-(N-morpholino)propanesulfonic acid (MPOS) buffer (pH 7.2) containing 100 mM potassium chloride and 10 mM ethylene glycol tetraacetic acid (EGTA) at 22° C. in the presence of various concentrations of free Ca^2+ ions (0, 0.017, 0.038, 0.065, 0.100, 0.150, 0.225, 0.351, 0.602, 1.35, and 39 μM). […] Thus, it was confirmed that they functioned as a fluorescent probe for measuring calcium ions in a sample by using fluorescence.
# [2] = test system: A549 cells; assay: Localization of probes in live A549 cells by fluorescence; assay type: cell-based; details: live A549 cells loaded with the AM ester; hydrolysed in cell by esterase
# Experimental: Among the photographs, (c) to (e) show Rhod-2 localized in the mitochondria. The fluorescence imaging was performed by incubating Rhod-2 AM (3 μM) with Mito Tracker Green FM (0.2 μM). […] The scale bars indicate 10 μm.
# (§1) Change of calcium concentration induced by histamine in a HeLa cell was measured by using CaTM-2-AM or Rhod-2-AM. A HeLa cell loaded with 3 μM CaTM-2-AM ((a) to (d)) or Rhod-2-AM ((e) to (h)) in HBSS was stimulated with histamine (1 μM). Further, localization of CaTM-2-AM (a) and Rhod-2-AM (b) in live A549 cells loaded with each of them was investigated by measuring fluorescence.
# [3] = test system: HeLa cells; assay: Histamine-induced calcium concentration change in HeLa cells; assay type: cell-based; details: HeLa cells loaded with 3 μM AM ester in HBSS, histamine 1 μM; compared with Rhod-2
# Experimental: FIG. 8b and FIG. 8c show fluorescence images obtained with CaTM-2 at the times indicated with ▾ in FIG. 8d, and FIG. 8f and FIG. 8g show fluorescence images obtained with Rhod-2 at the times indicated with ▾ in FIG. 8h. FIG. 8d and FIG. 8h show fluorescence change in individual cells specified in FIG. 8a and FIG. 8e, respectively. The scale bars indicate 30 μm.
# as §1
# [4] = test system: neuronal action potential; assay: Continuous calcium ion imaging with patch clamping in a cell membrane adhered state; assay type: cell-based; details: fluorescence method with simultaneous patch clamping
# From the text: The result of continuous imaging of calcium ions performed by the patch clamping method in a cell membrane adhered state is shown in FIG. 11.
# [5] = Optical characteristics in 0.1 M phosphate buffer containing 1% DMSO, Table 3; assay type: physicochemical; details: for λmax,fl: 0.1 M phosphate buffer (pH 9) containing 1% DMSO; for Φfl: 0.1 M phosphate buffer (pH 9), standard 2-Me TokyoMagenta (0.42); for λmax,abs pH 9 / λmax,abs pH 3: 0.1 M phosphate buffer containing 1% DMSO
# Experimental: The measurement was performed in a 0.1 M phosphate buffer (pH 9) containing 1% DMSO. pKa was obtained from the absorbance measured in a phosphate buffer (pH 9) by monophasic or biphasic curve fitting. The quantum yield was obtained by using the quantum yield of 2-Me TokyoMagenta (0.42) in a 0.1 M phosphate buffer (pH 9) as the standard.
# [6] = Oxidation potential of the benzene ring moiety; assay type: physicochemical; details: vs saturated calomel electrode (SCE)
# Experimental: (§2) Relationship between the fluorescence quantum yield and the oxidation potential of the benzene ring moiety of 2-Me TokyoMagenta synthesized in Example 1 mentioned above, as well as 2,4-DiMe TokyoMagenta, 2,5-DiMe TokyoMagenta, 2-OMe TokyoMagenta, 2-OMe-5-Me TokyoMagenta, and 2,5-OMe TokyoMagenta of (a) to (e) mentioned above was investigated. The fluorescence quantum yield was measured in a sodium phosphate buffer (pH 9) by using rhodamine B (Φfl=0.65) in ethanol as a control for fluorescence standard, and the oxidation potential was indicated with respect to a saturated calomel electrode (SCE) as a control. The dots plotted in FIG. 1 indicate the results of 2,4-DiMe TokyoMagenta, 2,5-DiMe TokyoMagenta, 2-OMe TokyoMagenta, 2-OMe-5-Me TokyoMagenta, and 2,5-OMe TokyoMagenta from the right, respectively. As clearly seen from the results shown in Table 1 and FIG. 1, the fluorescence quantum yields of the compounds changed depending on the oxidation potentials of the benzene ring moiety.
# [7] = Fluorescence quantum yield in sodium phosphate buffer (pH 9), rhodamine B as fluorescence standard; assay type: physicochemical; details: standard rhodamine B (Φfl=0.65) in ethanol
# Experimental: as §2
# The fluorescence quantum yield was measured in a sodium phosphate buffer (pH 9) by using rhodamine B (Φfl=0.65) in ethanol as a control for fluorescence standard.
# [8] = pKa from pH-dependent absorbance in phosphate buffer
# Experimental: The measurement was performed in a 0.1 M phosphate buffer (pH 9) containing 1% DMSO. pKa was obtained from the absorbance measured in a phosphate buffer (pH 9) by monophasic or biphasic curve fitting.
# [9] = Optical characteristics (absorption, fluorescence, quantum yield) in phosphate buffer, Table 2; details: phosphate buffer (pH 9)
# Experimental: In the table, the items attached with the letter a were measured in a phosphate buffer (pH 9), and the item attached with the letter b was measured in a 0.1 M phosphate buffer containing 1% DMSO.
# [10] = in ethanol; control for fluorescence standard; cited from earlier work
# [11] = 0.1 M phosphate buffer containing 1% DMSO
molecule,measurement,setting,value
CaTM-2,Φfl in 0 μM free [Ca2+] buffer,[1],0.024
same,λabs in 0 μM free [Ca2+] buffer,[1],597 nm
same,λfl in 0 μM free [Ca2+] buffer,[1],609 nm
same,Φfl in 39 μM free [Ca2+] buffer,[1],0.39
same,λabs in 39 μM free [Ca2+] buffer,[1],597 nm
same,λfl in 39 μM free [Ca2+] buffer,[1],609 nm
same,Kd,[1]; read-out: Kd,200 nM
same,Change of absorption spectra with Ca2+ ion concentration,[1],not changed
same,Change of fluorescence intensity with Ca2+ ion concentration,[1],fluorescence intensity was increased with increasing of Ca^2+ ion concentration
same,Intracellular localization,[2],uniformly distributed in the cytoplasm
same,Detection of calcium vibration induced by histamine stimulation,[3],more sharply detected the calcium vibration induced by histamine stimulation
same,Detection of neuronal action potential via transient change of intracellular calcium ion concentration,[4],observed with sufficient sensitivity
C[Si]1(C)C2=C(F)C(=O)C=CC2=C(c2ccccc2C(=O)O)c2ccc(O)c(F)c21 [2-COOH DFTM],"λmax,fl",[5],596 nm
same,Φfl,[5],0.54
same,"λmax,abs pH 9",[5],581 nm
"COc1ccc(C)cc1C1=C2C=CC(=O)C=C2[Si](C)(C)c2cc(O)ccc21 [2-OMe-5-Me, 2-Methoxy-5-methyl TokyoMagenta]",Oxidation potential (V vs SCE),[6],1.57 V vs SCE
same,Φfl,[7],0.14
2-Me Ge-TM,pKa,[8]; [11],6.7
"COc1ccc(OC)c(C2=C3C=CC(=O)C=C3[Si](C)(C)c3cc(O)ccc32)c1 [2,5-DiOMe, 2,5-Dimethoxy TokyoMagenta]",Oxidation potential (V vs SCE),[6],1.26 V vs SCE
same,Φfl,[7],0
CaTM-1,Φfl in 0 μM free [Ca2+] buffer,[1],0.066
same,λabs in 0 μM free [Ca2+] buffer,[1],585 nm
same,λfl in 0 μM free [Ca2+] buffer,[1],603 nm
same,Φfl in 39 μM free [Ca2+] buffer,[1],0.37
same,λabs in 39 μM free [Ca2+] buffer,[1],585 nm
same,λfl in 39 μM free [Ca2+] buffer,[1],603 nm
same,Kd,[1]; read-out: Kd,380 nM
same,Change of absorption spectra with Ca2+ ion concentration,[1],not changed
same,Change of fluorescence intensity with Ca2+ ion concentration,[1],fluorescence intensity was increased with increasing of Ca^2+ ion concentration
"COc1ccccc1C1=C2C=CC(=O)C=C2[Si](C)(C)c2cc(O)ccc21 [2-OMe, 2-Methoxy TokyoMagenta]",Oxidation potential (V vs SCE),[6],1.75 V vs SCE
same,Φfl,[7],0.31
CC[Si]1(CC)C2=CC(=O)C=CC2=C(c2ccccc2C)c2ccc(O)cc21 [2-Me DiEtTM],Φfl,[9],0.48
same,λabs,[9],582 nm
same,λfl,[9],601 nm
C[Si]1(C)C2=C(Cl)C(=O)C=CC2=C(c2ccccc2C(=O)O)c2ccc(O)c(Cl)c21 [2-COOH DCTM],"λmax,fl",[5],607 nm
same,Φfl,[5],0.48
same,"λmax,abs pH 9",[5],591 nm
CCN(CC)c1ccc2c(-c3ccccc3C(=O)O)c3ccc(=[N+](CC)CC)cc-3oc2c1.[Cl-] [rhodamine B],Φfl of fluorescence standard,[10],0.65
Cc1ccccc1C1=C2C=CC(=O)C(F)=C2[Si](C)(C)c2c1ccc(O)c2F [2-Me DFTM],"λmax,fl",[5],598 nm
same,Φfl,[5],0.57
same,"λmax,abs pH 3",[5],465 nm
same,"λmax,abs pH 9",[5],583 nm
Rhod-2 [reference compound],Intracellular localization,[2],accumulated in mitochondria
Calcium TokyoMagenta,Kd,"[1]; probe 1 μM, excitation 550 nm, read-out: Kd value",250 nM
same,Change of fluorescence intensity with Ca2+ ion concentration,[1],Increase of the fluorescence intensity was observed with increase of the calcium ion concentration
"Cc1ccc(C2=C3C=CC(=O)C=C3[Si](C)(C)c3cc(O)ccc32)c(C)c1 [2,4-DiMe, 2,4-Dimethyl TokyoMagenta]",Oxidation potential (V vs SCE),[6],2.08 V vs SCE
same,Φfl,[7],0.41
C[Si]1(C)C2=CC(=O)C=CC2=C(c2ccccc2C(=O)O)c2ccc(O)cc21 [2-COOH TM],"λmax,fl",[5],598 nm
same,Φfl,[5],0.38
same,"λmax,abs pH 9",[5],582 nm
Cc1ccccc1C1=C2C=CC(=O)C(Cl)=C2[Si](C)(C)c2c1ccc(O)c2Cl [2-Me DCTM],"λmax,fl",[5],607 nm
same,Φfl,[5],0.48
same,"λmax,abs pH 3",[5],477 nm
same,"λmax,abs pH 9",[5],595 nm
"Cc1ccccc1C1=C2C=CC(=O)C=C2[Si](C)(C)c2cc(O)ccc21 [2-Me TM, 2-Me TokyoMagenta]",Oxidation potential (V vs SCE),[6],2.19 V vs SCE
same,Φfl,[7],0.42
same,"λmax,fl",[5],598 nm
same,Φfl,[5],0.42
same,"λmax,abs pH 3",[5],472 nm
same,"λmax,abs pH 9",[5],582 nm
same,pKa,[8]; [11],6.8
same,pKa,[8]; from absorbance in phosphate buffer by monophasic or biphasic curve fitting,6.8
same,Φfl,[9],0.42
same,λabs,[9],582 nm
same,λfl,[9],598 nm
"Cc1ccc(C)c(C2=C3C=CC(=O)C=C3[Si](C)(C)c3cc(O)ccc32)c1 [2,5-DiMe, 2,5-Dimethyl TokyoMagenta]",Oxidation potential (V vs SCE),[6],1.98 V vs SCE
same,Φfl,[7],0.44
